Data on six molecules can be found in EPA's ToxRefDB 2.

Data set [1] deals with mouse. The following applies: Combined chronic toxicity/carcinogenicity, b6c3f1, Oral, Feed, dose end: 78 week, group: systemic.
Data set [2] concerns rat. The following applies: Combined chronic toxicity/carcinogenicity; fischer; Oral; Feed; dose end: 78 week; group: systemic; systemic / pathology microscopic / spleen / fibrosis.
Data set [3] relates to dog. Conditions: Subchronic oral toxicity in nonrodent, beagle, Feed, dose end: 90 day, group: systemic, systemic / in life observation / clinical signs / pulse/pressure + systemic / organ weight / liver / nos.
Data set [4] deals with mouse. The following applies: Carcinogenicity, cd1, Oral, Feed, dose end: 105 week, group: systemic.
Data set [5] deals with rat. Conditions: Combined chronic toxicity/carcinogenicity, sprague dawley, Oral, Feed, dose end: 30 month, group: systemic.
Data set [6] deals with dog. The following applies: Chronic toxicity; beagle; Oral; Feed; dose end: 52 week; group: systemic; systemic / clinical chemistry / alkaline phosphatase (alp/alk) / alkaline phosphatase (alp/alk) + systemic / clinical chemistry / ….
In data set [7] the test system is rat. Conditions: Multigenerational reproductive toxicity study, sprague dawley, Oral, Feed, dose end: 2 generation.
Data set [8] concerns rat. Conditions: Prenatal developmental toxicity study, wistar, Oral, Gavage/Intubation, dose end: 8 GD, group: maternal.
The test system of data set [9] is rat. The following applies: Subchronic oral toxicity in rodents, sprague dawley, Gavage/Intubation, dose end: 90 day, group: systemic.
The test system of data set [10] is dog. Conditions: Subchronic oral toxicity in nonrodent, beagle, Capsule, dose end: 90 day, group: systemic, systemic / clinical chemistry / alanine aminotransferase (alt/sgpt) / alanine aminotransferase (alt/sgpt) + systemic / clinical chemistry / ….
Data set [11] has as its system rat. The following applies: Multigenerational reproductive toxicity study, sprague dawley, Oral, Gavage/Intubation, dose end: 1 generation.
Data set [12] deals with mouse. The following applies: Carcinogenicity, b6c3f1, Oral, Water, dose end: 2 year, group: systemic.
The subject of data set [13] is rat. Conditions: Subchronic oral toxicity in rodents, fischer, Water, dose end: 13 week, group: systemic.
Data set [14] relates to mouse. The following applies: Subchronic oral toxicity in rodents, b6c3f1, Water, dose end: 13 week.
Data set [15] has as its system rat. Conditions: Combined chronic toxicity/carcinogenicity; sprague dawley; Oral; [Not Specified]; dose end: 24 month; group: systemic; systemic / hematology / erythrocyte (rbc) count differential / erythrocyte (rbc).
In data set [16] the test system is dog. Conditions: Subchronic oral toxicity in nonrodent, beagle, Feed, dose end: 13 week, group: systemic.
Data set [17] has as its system mouse. Conditions: Carcinogenicity; cd1; Oral; Feed; dose end: 18 month; group: systemic; systemic / pathology microscopic / lung / adenoma.
Data set [18] deals with dog. The following applies: Chronic toxicity; beagle; Oral; Feed; dose end: 52 week; group: systemic; systemic / clinical chemistry / alkaline phosphatase (alp/alk) / alkaline phosphatase (alp/alk) + systemic / organ weight / liver / absolute….
Setting [19] is: systemic / in life observation / body weight / body weight.
The mark [20] stands for this setting: systemic / in life observation / body weight / body weight + systemic / pathology microscopic / spleen / hemangiosarcoma.
The mark [21] stands for this setting: systemic / in life observation / body weight / body weight + systemic / in life observation / body weight / body weight gain + systemic / ….
Where [22] appears, read: systemic / clinical chemistry / thyroxine (t4) / thyroxine (t4), total + systemic / organ weight / liver / absolute + systemic / organ ….
Setting [23] is: group: offspring, developmental / developmental landmark / vaginal opening / vaginal opening + systemic / in life observation / body weight / offspring (pup) ….
Setting [24] is: group: parental, systemic / in life observation / body weight / body weight + systemic / in life observation / body weight / body weight gain.
Setting [25] is: reproductive / reproductive performance / postimplantation loss / postimplantation loss + systemic / in life observation / body weight / ….
The mark [26] stands for this setting: systemic / in life observation / food consumption / food consumption.
[27] abbreviates: systemic / in life observation / body weight / body weight gain.
Where [28] appears, read: systemic / in life observation / body weight / body weight gain + systemic / clinical chemistry / cholesterol / cholesterol + systemic / ….
[29] abbreviates: group: offspring, systemic / organ weight / kidney / absolute + systemic / organ weight / liver / absolute.
The mark [30] stands for this setting: group: offspring, systemic / organ weight / kidney / absolute + systemic / organ weight / liver / absolute + systemic / in life observation / body weight / ….
Setting [31] is: group: parental, systemic / organ weight / kidney / absolute + systemic / organ weight / liver / absolute.
Setting [32] is: group: parental, systemic / organ weight / kidney / absolute + systemic / organ weight / liver / absolute + systemic / in life observation / body weight / ….
Where [33] appears, read: group: reproductive, reproductive / reproductive performance / reproductive performance other / NOS + reproductive / reproductive performance / fertility / ….
The mark [34] stands for this setting: systemic / in life observation / body weight / body weight + systemic / organ weight / lung / absolute + systemic / pathology microscopic / ….
Setting [35] is: systemic / pathology microscopic / liver / angiectasis + systemic / pathology microscopic / liver / eosinophilic focus + systemic / ….
Setting [36] is: systemic / hematology / [other] / [other] + systemic / hematology / jolly bodies / jolly bodies + systemic / hematology / leukocyte (wbc) ….
[37] abbreviates: systemic / hematology / leukocyte (wbc) count differential / leukocyte (wbc) + systemic / hematology / lymphocyte / lymphocyte.
Setting [38] is: group: maternal, reproductive / reproductive performance / estrous cycle / abnormal.
The mark [39] stands for this setting: group: systemic, systemic / in life observation / body weight / body weight + systemic / in life observation / body weight / body weight gain + systemic / in….
The mark [40] stands for this setting: systemic / clinical chemistry / albumin / albumin + systemic / clinical chemistry / albumin-globulin ratio / albumin-globulin ratio + ….

As a reminder, the LOAEL is the lowest dose or exposure tested at which an adverse effect was seen. Usually NOAEL stands for the highest tested level that showed no adverse finding.

Turning to `Nc1ccc(Cl)cc1` [4-Chloroaniline], in the data set on mouse [1] (setting [19]), the LOAEL is 375 mg/kg/day and the NOAEL is less than 375 mg/kg/day. In the data set with mouse [1] (setting [20]), the LEL was determined as 375 mg/kg/day and the NEL is less than 375 mg/kg/day. In the data set with rat [2], the LEL was 12.5 mg/kg/day, the LOAEL is 12.5 mg/kg/day, the NEL is less than 12.5 mg/kg/day and the NOAEL is less than 12.5 mg/kg/day.

Take `Clc1ccccc1-c1nnc(-c2ccccc2Cl)nn1` [Clofentezine]: the LEL in the data set on dog [3] was 80 mg/kg/day; in the data set on mouse [4] (systemic / pathology gross / liver / mass) it was 50.7 mg/kg/day; in the data set with rat [5] (setting [22]), 17.3 mg/kg/day; with dog [6], 25 mg/kg/day. Also, the LOAEL was 80 mg/kg/day in the data set with dog [3], greater than 544 mg/kg/day with mouse [4] (setting [21]), 17.3 mg/kg/day in the data set with rat [5] (setting [22]) and 25 mg/kg/day in the data set with dog [6]. Also, the NEL was less than 80 mg/kg/day in the data set with dog [3], 5 mg/kg/day in the data set on mouse [4] (setting [21]), 1.72 mg/kg/day in the data set on rat [5] (systemic / pathology microscopic / liver / hypertrophy + systemic / pathology microscopic / liver / vacuolization) and 1.25 mg/kg/day with dog [6]. Further, the NOAEL was less than 80 mg/kg/day in the data set with dog [3], no less than 544 mg/kg/day in the data set on mouse [4] (setting [21]), 1.72 mg/kg/day with rat [5] (setting [22]) and 1.25 mg/kg/day in the data set on dog [6].

On to `CC(C)(C)CC(C)(C)c1ccc(O)cc1` [4-(1,1,3,3-Tetramethylbutyl)phenol], for which the LEL in the data set on rat [7] (setting [23]) worked out at 100 mg/kg/day; in the data set on rat [7] (setting [24]), 100 mg/kg/day; in the data set with rat [8] (setting [26]) it was 15.6 mg/kg/day. The LOAEL is greater than 100 mg/kg/day in the data set with rat [7] (setting [23]), greater than 100 mg/kg/day in the data set with rat [7] (setting [24]) and greater than 125 mg/kg/day in the data set with rat [8] (setting [25]). Moreover, the NEL with rat [7] (setting [23]) is 10 mg/kg/day; in the data set with rat [7] (setting [24]), 10 mg/kg/day; in the data set with rat [8] (setting [26]), less than 15.6 mg/kg/day. For the same molecule, the results for the NOAEL in the data set on rat [7] (setting [23]), in the data set with rat [7] (setting [24]) and in the data set on rat [8] (setting [25]) were no less than 100 mg/kg/day, no less than 100 mg/kg/day and no less than 125 mg/kg/day, respectively.

`CCOc1ccc2c(c1)C(C)=CC(C)(C)N2` [Ethoxyquin]: the LEL came to 40 mg/kg/day in the data set on rat [9] (setting [27]); 4 mg/kg/day with dog [10]; 75 mg/kg/day in the data set on rat [11] (setting [29]); 75 mg/kg/day in the data set with rat [11] (setting [31]); 300 mg/kg/day with rat [11] (setting [33]). Besides, the LOAEL is 40 mg/kg/day in the data set on rat [9] (setting [27]); 4 mg/kg/day in the data set with dog [10]; greater than 300 mg/kg/day in the data set with rat [11] (setting [30]); greater than 300 mg/kg/day in the data set on rat [11] (setting [32]); greater than 300 mg/kg/day in the data set with rat [11] (setting [33]). The NEL was 20 mg/kg/day with rat [9] (setting [28]); 2 mg/kg/day with dog [10]; less than 75 mg/kg/day in the data set on rat [11] (setting [29]); less than 75 mg/kg/day with rat [11] (setting [31]); 150 mg/kg/day in the data set with rat [11] (setting [33]). Besides, the NOAEL in the data set on rat [9] (setting [28]) is 20 mg/kg/day; in the data set with dog [10], 2 mg/kg/day; with rat [11] (setting [30]) it was no less than 300 mg/kg/day; with rat [11] (setting [32]), no less than 300 mg/kg/day; in the data set with rat [11] (setting [33]), no less than 300 mg/kg/day.

In the case of `CCOC(N)=O` [Urethane], the LOAEL in the data set with mouse [12] (setting [34]) is 0.325 mg/kg/day; in the data set on rat [13] (setting [36]) it was greater than 525 mg/kg/day; in the data set with mouse [14] (setting [38]), greater than 1330 mg/kg/day; in the data set on mouse [14] (setting [39]), greater than 1330 mg/kg/day. The NOAEL in the data set on mouse [12] (setting [34]) is 0.105 mg/kg/day; with rat [13] (setting [36]) it was no less than 525 mg/kg/day; in the data set on mouse [14] (setting [38]) it was no less than 1330 mg/kg/day; in the data set on mouse [14] (setting [39]), no less than 1330 mg/kg/day. Further, the LEL in the data set with mouse [12] (setting [35]) was 0.035 mg/kg/day; in the data set with rat [13] (setting [37]), 11 mg/kg/day; in the data set with mouse [14] (setting [38]), 147 mg/kg/day; in the data set with mouse [14] (group: systemic, systemic / in life observation / body weight / body weight + systemic / in life observation / body weight / body weight gain + systemic / …), 147 mg/kg/day. The NEL was less than 0.035 mg/kg/day with mouse [12] (setting [35]), less than 11 mg/kg/day in the data set with rat [13] (setting [37]), 44 mg/kg/day in the data set on mouse [14] (setting [38]) and 44 mg/kg/day with mouse [14] (setting [39]).

In the case of `CCC(C)(NC(=O)c1cc(Cl)c(C)c(Cl)c1)C(=O)CCl` (stereo not drawn) [Zoxamide], the LEL in the data set with rat [15] stood at 51 mg/kg/day; with dog [16] (systemic / organ weight / liver / absolute + systemic / organ weight / liver / relative to body weight), 322 mg/kg/day; in the data set on mouse [17] it was 1290 mg/kg/day; in the data set on dog [18] it was 255 mg/kg/day. Further, the LOAEL was greater than 1060 mg/kg/day with rat [15], 1050 mg/kg/day in the data set with dog [16] (setting [40]), greater than 1290 mg/kg/day with mouse [17] and 255 mg/kg/day in the data set with dog [18]. For the same molecule, the NEL is less than 51 mg/kg/day in the data set with rat [15], 61.8 mg/kg/day in the data set with dog [16] (setting [40]), 326 mg/kg/day in the data set on mouse [17] and 50 mg/kg/day with dog [18]. Moreover, the NOAEL was no less than 1060 mg/kg/day with rat [15], 322 mg/kg/day in the data set with dog [16] (setting [40]), no less than 1290 mg/kg/day with mouse [17] and 50 mg/kg/day in the data set with dog [18].
